From a melting point compilation (Tetko et al.; mined from patent text by program, amines drawn as free bases though some values may be those of a salt)

SMILES | melting point [°C]
C=C(C)Cc1c(C)c2c(c(C)c1O)CC(C)(C)N2C=O | 166 to 168
O=C(CCC(O)c1ccccc1)NCc1ccccc1 (stereo not drawn) | 92 to 94
CCCCCCC1(CCn2ccnc2)SCCS1 | 110 to 116
CCOC(=O)CC(=O)Nc1ncc(Br)s1 | 165 to 166
CCN(CC)C(=O)c1ccccc1C(C)(C)C | 38.5 to 40.5
CNC(=S)N(C)Cc1ccc(Br)nc1 | 107 to 108
CCOC(=O)c1cnc2nc(C(=O)O)c(OCC)cc2c1O | 270 to 272
CNC(=N[N+](=O)[O-])NCc1ccc(Cl)nc1 | 150 to 152
CN1CCN(CC2CCN(c3ccc(Nc4ncc5ccc(-c6cccc(S(=O)(=O)NC(C)(C)C)c6)n5n4)cc3)CC2)CC1 | 233 to 235
N=C(NO)c1ccc(-c2ccc(-c3nc4cc(C(=N)NO)ccc4[nH]3)cc2)c(OCc2ccccc2)c1 | 250 to 253
NS(=O)(=O)c1ccccc1C(Cl)Cl | 131 to 132
CCOC(=O)CCNC(=O)Nc1ccncc1 | 95
Nc1ccc(C2CCNCC2)cc1 | 85 to 87
Cc1cc2oc(C(N)=O)cc(=O)c2c(C)c1Cl | > 300
Clc1cnc2cnc(Cl)nc2c1 | 177 to 178
Clc1nc(N2CCOCC2)nc(-n2cnc3ccccc32)n1 | 201 to 203
CCCNC(=O)c1ccc(Nc2nc(OCC3CCCCC3)c3nc[nH]c3n2)cc1 | 226 to 228
Cc1ccc(Oc2ccc(OC(=O)N3CCC(C)CC3)cc2)cc1 | 79 to 81
O=C(Cc1ccccc1)Oc1cc(=O)n(-c2ccccc2)c2ncccc12 | 179 to 180
C1COCCNCCSCCN1 | 74 to 76
CCCCCCCCCCCOc1cc(C(=O)O)ccc1CO | 82 to 83
COC(=O)CN1C(=S)CN=C(c2ccccc2Cl)c2ccccc21 | 183 to 184
COc1c(N(C)C)cc(CC(C#N)=CNc2ccccc2)cc1N(C)C(C)=O | 176 to 178
CCOC(=O)Nc1nc(-c2ccccc2)c(-c2nc3ccccc3c(=O)n2-c2ccc(C(C)=O)cc2)s1 | 245 to 247
CS(=O)(=O)c1ccc(C2=C(c3ccc(CO)cc3)CCC2)cc1 | 114 to 115

SMILES | melting point [°C]
CCCCn1c(=O)n(C)c(=O)c2[nH]ncc21 | 160 to 162
CC(C)CN1CCC(CCC(=O)c2cc(Cl)c(N)[nH]c2=O)CC1 | 175
CC(C)CCCC(C)C1CCC2C3CC=C4CC(OCCCCCCI)CCC4(C)C3CCC12C (stereo not drawn) | 104
CC(=O)OCCOCn1c(Cl)nc2c(Cl)c(Cl)c(Cl)c(Cl)c21 | 119
N#CN=C(Nc1cncc(N)c1)NC1(c2ccccc2)CCC1 | 213 to 214
O=C(O)c1ccccc1C(=O)c1cccc(NC(=O)c2ccn3c2CSC3c2cccnc2)c1 (stereo not drawn) | 315
O=C(O)c1ccc(N2C(=O)C3C4C=CC(C4)C3C2=O)cc1 (stereo not drawn) | 224 to 228
CN1CCN(c2ccc(Nc3cc(-c4cccc(N5CCc6c(cc7n6CCCC7)C5=O)c4CO)cn(C)c3=O)nc2)CC1 | 180 to 181
Cc1ccc(S(=O)(=O)NC(=O)OCCc2ccc(-n3c(CCCc4ccncc4)nc4cc(C(F)(F)F)c(Cl)cc43)cc2)cc1 | 80 to 87
CCn1cc(C(=O)O)c(=O)c2cc(F)c(N3CCC(N)C3)c(F)c21 (stereo not drawn) | 240 to 242
CCCCc1ccc(C(=O)NCCC(C)(C)C)cc1 | 70 to 71
CC(=O)Nc1c(C)nn(C)c1C | 118 to 119
CCOC(=O)c1cc(C)n(-c2cccc(S(C)(=O)=O)c2)c1-c1ccccc1 | 131 to 133
COc1ccc2c(-c3ccc(OCCN4CCCC4)cc3)c(Cc3ccc(Cl)cc3)oc2c1 | 75
NN1C(=O)C(C(=O)C(Cc2ccc3ccccc3c2)NC(=O)OCc2ccccc2)C1Oc1ccccc1 (stereo not drawn) | 205 to 206
Oc1ccc(P(c2ccc(O)cc2)c2ccc(O)cc2)cc1 | 128 to 133
CCOC(=O)c1c(OCC)nsc1NC(=O)N(CC)CC | 77 to 80
CC(=O)C(CCC#N)(CCC#N)C(C)=O | 185 to 186
CC(C)(N)CNC(=O)CNC(=O)Cc1ccccc1 | 150 to 155
O=C(CCCI)ON1C(=O)CCC1=O | 86 to 87
CCCCCCC(C(=O)O)n1c(C(F)(F)F)nc2cc(-c3ccccc3-c3nn[nH]n3)ccc21 (stereo not drawn) | 128 to 130
c1ccc(C2=Nc3ccccc3N3CCc4cccc2c43)cc1 | 141 to 143
CC1(C)N(C=O)CC(=O)N1CC(N)=O | 211 to 213
O=C1NC(=O)C(=Cc2ccc(CCSc3ccccc3)cc2)S1 | 159 to 161

Continued, values first:

melting point [°C] | SMILES
75 to 78 | O=c1nc(NCc2ccccc2F)c(F)cn1-c1ccsc1
> 220 | CCC(C)CC(C)NC1=NS(=O)(=O)c2cc(Cl)ccc2N1 (stereo not drawn)
180 to 181 | CN1CCN(C(=O)c2ccc(-c3cnc4c(c3)N(Cc3ccccc3)CCN4)cc2)CC1
129 to 132 | CCC1(O)C(C)=CC(=O)N1Cc1ccccc1 (stereo not drawn)
250 | CCCC1=C(C#N)C(c2cccc(C)c2[N+](=O)[O-])c2c[nH]nc2N1 (stereo not drawn)
188 to 193 | CNCC1COC2(CCN(c3nc4c(cc3F)C=C(C(=O)O)CN4c3ccc(F)cc3F)CC2)O1 (stereo not drawn)
257 to 260 | CC(=O)Nc1nc2ccc(S(=O)(=O)n3c(COC(C)C(=O)O)cc4nc(Cl)ccc43)cc2s1 (stereo not drawn)
160 to 162 | CNc1ncc(-c2ccc(C)cc2)c(-c2ccc(C)cc2)n1
247 to 249 | O=C1OC2(CCN(C(=O)Nc3ncc(-c4ccccc4)cn3)CC2)c2cccc(F)c21
145 to 146 | CCc1noc(-c2cn(-c3cccc(Oc4ccc([N+](=O)[O-])cc4)c3)cn2)n1
247 to 249 | CN1CCC(c2[nH]c(=O)c3ccccc3c2-c2ccccc2F)CC1
81 to 82 | Cc1ccc(-c2ncncc2Br)cc1
152 to 153 | N#Cc1c(F)cc(OCc2ccsc2)cc1OC(C(=O)O)c1ccccc1Cl (racemic)
> 250 | ON=C1CCn2c(-c3ccc(Br)cc3)nc3c(Cl)ccc1c32
106 to 108 | COC(=O)c1ccc(S(=O)(=O)C[N+](=O)[O-])cc1
95 to 98 | CC1(Br)CCc2cc3c(cc2C1=O)CCO3 (stereo not drawn)
134 to 136 | CC(C(=O)O)c1ccc2c(c1)C(=O)Cc1ccccc1C2 (stereo not drawn)
158 to 160 | O=CNc1nc(CSc2ccc([N+](=O)[O-])cc2)cs1
123 to 124 | O=C1c2ccccc2C(O)N1CCBr (racemic)
132 to 134 | CC(C)(C)c1cc(-n2nc3ccc(Sc4ccccc4)cc3n2)c(O)c(C(C)(C)C)c1
205 to 215 | Cn1c(N)cc(=O)n1-c1ccccc1
168 | COc1cccc(Oc2c(NS(=O)(=O)c3ccc(C(C)(C)C)cc3)ncnc2SCCOc2ncccn2)c1
226 to 228 | Cc1nn(-c2ccncc2)c2nc3cc(F)c(F)cc3c(Cl)c12
132 to 134 | CC[C@@H](NC(=O)N1CC(=O)NCC(Cc2cc(Cl)ccc2OC)C1=O)C(=O)Nc1ccc(C)c(C(=O)O)c1 (stereo partly drawn)
120 to 122 | OC1CCN(c2nc(-c3ccccc3)cc(-c3ccc4c(c3)OCO4)n2)CC1
80 to 81 | c1ccc(COc2ccc(CCCn3ccnc3)cc2)cc1
113 to 115 | OCCN1c2ccccc2Oc2ccccc21

melting point [°C] | SMILES
95 to 97 | Cc1nc(-c2ccccc2)n(C)c1C=NOCCO
274 to 276 | COc1cc(Nc2c(C#N)cnc3cc(-c4ccccc4)sc23)c(Cl)cc1Cl
125 to 126 | CCCn1c(Cl)cc2cnc(C)n2c1=O
228 | Cc1cc(N)nc(CCc2nc3cc(-c4ccc(F)cc4)cnc3[nH]2)c1
216 | Cc1nc(NC(=O)c2cnn3c(C(F)F)cc(-c4ccc(C(F)(F)F)cc4)nc23)sc1S(=O)(=O)N(C)CCO
132 to 135 | O=C(Nc1ccc(-n2nc(C3CC3)cc2C2CC2)c(F)c1)c1cccc(F)c1F
124 to 125 | COC(=O)ON(C(N)=O)C(C)c1cc2ccccc2s1 (stereo not drawn)
157 to 158 | CN(Sc1ccccc1[N+](=O)[O-])C(=O)Nc1ccc(Cl)cc1
240 to 242 | Nc1ncccc1-c1nc2cc(F)cnc2n1-c1ccc(CC(=O)Nc2ccccc2)cc1
78 to 80 | CCc1cc(OCc2ccccc2)c2c(Cl)cccc2n1
198 to 199 | Cc1nnc(-c2ccc3occ(-c4ccc(S(C)(=O)=O)cc4Cl)c3c2)o1
157 to 159 | CCOC(=O)c1ccc(-c2nc3ccc(C)cn3c2CO)cc1
127 to 130 | Cc1cc(-c2ccc(S(C)(=O)=O)cc2)n(-c2ccc(F)cc2)c1
145 to 146 | CC(C(=O)O)c1cc(CC(=O)O)c(-c2ccccc2)s1 (stereo not drawn)
38 | CSC(=S)c1cccc([N+](=O)[O-])c1
179 | CCn1c(N)c(C(N)=O)c(=O)c2cnc(Nc3ccc(N4CCN(C(C)=O)CC4)cc3)nc21
154 to 163 | CCc1ccc2c(c1)[C@@H](N1CCCC1=O)[C@H](O)C(C)(C)O2 (relative stereo)
117 to 119 | CC(C#CCOc1cccc(Oc2ccccn2)c1)N(O)C(N)=O (stereo not drawn)
192 | Cc1ccccc1-c1nccc2c(CC(=O)O)cccc12
262 to 264 | Cc1cccc2ncn(C3CCC(=O)NC3=O)c(=O)c12 (stereo not drawn)
81 to 83.5 | O=C(Cl)C=Cc1cccc([N+](=O)[O-])c1
139 to 140 | CC=C1CC2C3CCc4cc(OC)ccc4C3CCC2(C)C1=O (stereo not drawn)
148 to 149 | COC(=O)c1cc2c(cnn2C)nc1C(=O)OC
210 to 215 | NC(=O)NN=Cc1c(O)c(O)cc2ccccc12
110 to 111 | OCC1Cc2c(cc(Cl)c3c(-c4ccccc4F)noc23)O1 (stereo not drawn)
124 to 125 | COc1cc(C(O)c2cnc3ccccc3c2)ccc1OCc1ccccc1 (stereo not drawn)
97 to 99 | Cn1ccnc1Sc1ccc([N+](=O)[O-])cc1F
